# pEC50, pIC50: −log10 of the molar value. Read-outs that look alike come from different tables or passages of the source.
# Key:
# SARS-CoV-2 3CL-protease = SARS-CoV-2 3CL-protease (Severe acute respiratory syndrome coronavirus 2 (2019-nCoV) (SARS-CoV-2), UniProt P0DTD1); test: SARS-CoV-2 3C-Like (3CL) Protease Fluorescence Assay (FRET); assay type: biochemical
# [1] = test system: 229E human corona virus (hCoV); test: 229E Live Virus Assay (MRC-5 cells, CPE, ATPlite readout); assay type: cell-based, hCoV-229E; conditions: read-out: 229E EC50; for EC50: MRC-5 cells, hCoV-229E MOI 0.05, 6 days at 34° C., ATPlite, duplicate, ranges defined in μM
# [2] = Human coronavirus 229E, MRC5, 144 h
smiles,measurement,setting,value
CC(C)C[C@@H](C(=O)N1C[C@]2(C[C@H]1C#N)C(=O)Nc1ccccc12)N(C)C(=O)[C@H](Cc1ccc(F)cc1)NC(=O)OCc1ccccc1 [Example 1],pIC50,SARS-CoV-2 3CL-protease,> 7.00
same,pEC50,[1]; [2],> 7.00
CC(C)C[C@@H](C(=O)N1C[C@]2(C[C@H]1C#N)C(=O)Nc1ccccc12)N(C)C(=O)[C@H](Cc1ccc(F)cc1)NC(=O)C(F)(F)F [Example 2],pIC50,SARS-CoV-2 3CL-protease,> 7.00
same,EC50,[1]; [2],< 0.1 µM
COC(=O)N[C@@H](Cc1ccc(F)cc1)C(=O)N(C)[C@@H](CC(C)C)C(=O)N1C[C@]2(C[C@H]1C#N)C(=O)Nc1ccccc12 [Example 3],pIC50,SARS-CoV-2 3CL-protease,> 7.00
same,pEC50,[1]; [2],> 7.00
Cc1cc(C(=O)N[C@@H](Cc2ccc(F)cc2)C(=O)N(C)[C@@H](CC(C)C)C(=O)N2C[C@]3(C[C@H]2C#N)C(=O)Nc2ccccc23)no1 [Example 4],pIC50,SARS-CoV-2 3CL-protease,> 7.00
same,EC50,[1]; [2],< 0.1 µM
CN(C(=O)[C@H](Cc1ccc(F)cc1)NC(=O)OCc1ccccc1)[C@@H](CC(C)(C)C)C(=O)N1C[C@]2(C[C@H]1C#N)C(=O)Nc1ccccc12 [Example 5],pIC50,SARS-CoV-2 3CL-protease,> 7.00
same,pEC50,[1]; [2],> 7.00
CN(C(=O)[C@H](Cc1ccc(F)cc1)NC(=O)C(F)(F)F)[C@@H](CC(C)(C)C)C(=O)N1C[C@]2(C[C@H]1C#N)C(=O)Nc1ccccc12 [Example 6],pIC50,SARS-CoV-2 3CL-protease,> 7.00
same,EC50,[1]; [2],< 0.1 µM
CN(C(=O)[C@H](Cc1ccc(F)cc1)NC(=O)c1cc2c(F)cc(F)c(F)c2[nH]1)[C@@H](CC(C)(C)C)C(=O)N1C[C@]2(C[C@H]1C#N)C(=O)Nc1ccccc12 [Example 7],pIC50,SARS-CoV-2 3CL-protease,> 7.00
same,pEC50,[1]; [2],> 7.00
CN(C(=O)[C@H](Cc1ccc(F)cc1)NC(=O)NC1CC1)[C@@H](CC(C)(C)C)C(=O)N1C[C@]2(C[C@H]1C#N)C(=O)Nc1ccccc12 [Example 8],pIC50,SARS-CoV-2 3CL-protease,> 7.00
same,pEC50,[1]; [2],> 7.00
CN(C(=O)[C@H](Cc1ccc(F)cc1)n1cc(C2CC2)nn1)[C@@H](CC(C)(C)C)C(=O)N1C[C@]2(C[C@H]1C#N)C(=O)Nc1ccccc12 [Example 9],pIC50,SARS-CoV-2 3CL-protease,> 7.00
same,EC50,[1]; [2],< 0.1 µM
CC(C)C[C@@H](C(=O)N1C[C@]2(C[C@H]1C#N)C(=O)Nc1ccccc12)N1CC[C@H](NC(=O)OC(C)(C)C)C1=O [Example 10],pIC50,SARS-CoV-2 3CL-protease,6.00 to 7.00
same,EC50,[1]; [2],0.1 to 1 µM
CC(C)C[C@@H](C(=O)N1C[C@]2(C[C@H]1C#N)C(=O)Nc1ccccc12)N(C)C(=O)[C@@H](NC(=O)OCc1ccccc1)C(C)(C)C [Example 11],pIC50,SARS-CoV-2 3CL-protease,> 7.00
same,pEC50,[1]; [2],6.00 to 7.00
CC(C)C[C@@H](C(=O)N1C[C@]2(C[C@H]1C#N)C(=O)Nc1ccccc12)N(C)C(=O)[C@@H](NC(=O)C(F)(F)F)C(C)(C)C [Example 12],pIC50,SARS-CoV-2 3CL-protease,> 7.00
same,pEC50,[1]; [2],6.00 to 7.00
COC(=O)N[C@H](C(=O)N(C)[C@@H](CC(C)C)C(=O)N1C[C@]2(C[C@H]1C#N)C(=O)Nc1ccccc12)C(C)(C)C [Example 13],pIC50,SARS-CoV-2 3CL-protease,> 7.00
same,pEC50,[1]; [2],6.00 to 7.00
CC(C)C[C@@H](C(=O)N1C[C@]2(C[C@H]1C#N)C(=O)Nc1ccccc12)N(C)C(=O)[C@H](CC1CC1)NC(=O)OCc1ccccc1 [Example 14],pIC50,SARS-CoV-2 3CL-protease,> 7.00
same,pEC50,[1]; [2],> 7.00
CC(C)C[C@@H](C(=O)N1C[C@]2(C[C@H]1C#N)C(=O)Nc1ccccc12)N(C)C(=O)[C@H](CC1CC1)NC(=O)C(F)(F)F [Example 15],pIC50,SARS-CoV-2 3CL-protease,> 7.00
same,pEC50,[1]; [2],> 7.00
CC(C)(C)C[C@H](NC(=O)[C@H](CC1CC1)NS(=O)(=O)C1CC1)C(=O)N1C[C@]2(C[C@H]1C#N)C(=O)Nc1ccccc12 [Example 37],pIC50,SARS-CoV-2 3CL-protease,> 7.00
CC(C)(C)C[C@H](NC(=O)[C@H](CC1CC1)NC(=O)NC1CC1)C(=O)N1C[C@]2(C[C@H]1C#N)C(=O)Nc1ccccc12 [Example 38],pIC50,SARS-CoV-2 3CL-protease,> 7.00
CC(C)(C)C[C@H](NC(=O)[C@H](CC1CC1)n1cc(C2CC2)nn1)C(=O)N1C[C@]2(C[C@H]1C#N)C(=O)Nc1ccccc12 [Example 53],pIC50,SARS-CoV-2 3CL-protease,> 7.00
CC(C)(C)C[C@H](NC(=O)[C@H](CC1CC1)NC(=O)C1(c2ccccc2)CC1)C(=O)N1C[C@]2(C[C@H]1C#N)C(=O)Nc1ccccc12 [Example 71],pIC50,SARS-CoV-2 3CL-protease,> 7.00
CC(C)(C)C[C@H](NC(=O)[C@H](CC1CC1)NC(=O)C(F)(F)c1ccccc1)C(=O)N1C[C@]2(C[C@H]1C#N)C(=O)Nc1ccccc12 [Example 79],pIC50,SARS-CoV-2 3CL-protease,> 7.00
CC(C)(C)C[C@H](NC(=O)[C@H](CC1CC1)NC(=O)N1CCOCC1)C(=O)N1C[C@]2(C[C@H]1C#N)C(=O)Nc1ccccc12 [Example 84],pIC50,SARS-CoV-2 3CL-protease,> 7.00
CC(=O)N[C@@H](CC1CC1)C(=O)N[C@@H](CC(C)(C)C)C(=O)N1C[C@]2(C[C@H]1C#N)C(=O)Nc1ccccc12 [Example 95],pIC50,SARS-CoV-2 3CL-protease,> 7.00
CC(C)(C)C[C@H](NC(=O)[C@H](CC1CC1)NC(=O)C(F)(F)F)C(=O)N1C[C@]2(C[C@H]1C#N)C(=O)Nc1ccccc12 [Example 96],pIC50,SARS-CoV-2 3CL-protease,> 7.00
CC(C)(C)C[C@H](NC(=O)[C@H](CC1CC1)NC(=O)c1ccc(F)cc1)C(=O)N1C[C@]2(C[C@H]1C#N)C(=O)Nc1ccccc12 [Example 97],pIC50,SARS-CoV-2 3CL-protease,> 7.00
CC(C)(C)C[C@H](NC(=O)[C@H](CC1CC1)NC(=O)c1cnccn1)C(=O)N1C[C@]2(C[C@H]1C#N)C(=O)Nc1ccccc12 [Example 98],pIC50,SARS-CoV-2 3CL-protease,> 7.00
Cc1cc(C(=O)N[C@@H](CC2CC2)C(=O)N[C@@H](CC(C)(C)C)C(=O)N2C[C@]3(C[C@H]2C#N)C(=O)Nc2ccccc23)no1 [Example 99],pIC50,SARS-CoV-2 3CL-protease,> 7.00
Cc1ncc(C(=O)N[C@@H](CC2CC2)C(=O)N[C@@H](CC(C)(C)C)C(=O)N2C[C@]3(C[C@H]2C#N)C(=O)Nc2ccccc23)s1 [Example 100],pIC50,SARS-CoV-2 3CL-protease,> 7.00
CC(C)(C)C[C@H](NC(=O)[C@H](CC1CC1)NC(=O)N1CCCCC1)C(=O)N1C[C@]2(C[C@H]1C#N)C(=O)Nc1ccccc12 [Example 101],pIC50,SARS-CoV-2 3CL-protease,> 7.00
CC(C)(C)C(NC(=O)C(F)(F)F)C(=O)N1CCC[C@H]1C(=O)N1C[C@]2(C[C@H]1C#N)C(=O)Nc1ccccc12 (stereo partly shown) [Example 102],pIC50,SARS-CoV-2 3CL-protease,< 6.00
CC(=O)N[C@@H](Cc1ccc(F)cc1)C(=O)N(C)[C@@H](CC(C)(C)C)C(=O)N1C[C@]2(C[C@H]1C#N)C(=O)Nc1ccccc12 [Example 103],pIC50,SARS-CoV-2 3CL-protease,> 7.00
CC(C)(C)C[C@H](NC(=O)[C@H](Cc1ccc(F)cc1)NC(=O)c1cnccn1)C(=O)N1C[C@]2(C[C@H]1C#N)C(=O)Nc1ccccc12 [Example 104],pIC50,SARS-CoV-2 3CL-protease,> 7.00
Cc1cc(C(=O)N[C@@H](Cc2ccc(F)cc2)C(=O)N[C@@H](CC(C)(C)C)C(=O)N2C[C@]3(C[C@H]2C#N)C(=O)Nc2ccccc23)no1 [Example 105],pIC50,SARS-CoV-2 3CL-protease,> 7.00
CN(C)[C@@H](CC1CC1)C(=O)N[C@@H](CC(C)(C)C)C(=O)N1C[C@]2(C[C@H]1C#N)C(=O)Nc1ccccc12 [Example 106],pIC50,SARS-CoV-2 3CL-protease,< 6.00
CC(C)[C@H](NS(=O)(=O)c1ccc(F)cc1)C(=O)N(C)[C@@H](CC(C)(C)C)C(=O)N1C[C@]2(C[C@H]1C#N)C(=O)Nc1ccccc12 [Example 111],EC50,[1],0.1 to 1 µM
CC(C)C[C@@H](C(=O)N1C[C@]2(C[C@H]1C#N)C(=O)Nc1ccccc12)N(C)C(=O)[C@@H](NC(=O)C(F)(F)F)c1ccccc1 [Example 116],pIC50,SARS-CoV-2 3CL-protease,> 7.00
CC(C)C[C@@H](C(=O)N1C[C@]2(C[C@H]1C#N)C(=O)Nc1ccccc12)N(C)C(=O)[C@H](NC(=O)C(F)(F)F)c1ccccc1 [Example 117],pIC50,SARS-CoV-2 3CL-protease,> 7.00
CC(C)C[C@@H](C(=O)N1C[C@]2(C[C@H]1C#N)C(=O)Nc1ccccc12)N(C)C(=O)C(NC(=O)c1ccc(F)c(F)c1)c1ccccc1 (stereo partly shown) [Example 118],pIC50,SARS-CoV-2 3CL-protease,> 7.00
CC(C)(C)C[C@H](NC(=O)[C@H](CC1CC1)N1CCOC1=O)C(=O)N1C[C@]2(C[C@H]1C#N)C(=O)Nc1ccccc12 [Example 119],pIC50,SARS-CoV-2 3CL-protease,> 7.00
CN(C(=O)[C@H](CC1CC1)NC(=O)c1cc(OC(F)(F)F)c2ncccc2c1)[C@@H](CC(C)(C)C)C(=O)N1C[C@]2(C[C@H]1C#N)C(=O)Nc1ccccc12 [Example 125],pIC50,SARS-CoV-2 3CL-protease,> 7.00
CN(C(=O)[C@H](CC1CC1)NC(=O)c1cc2c(F)cc(F)c(F)c2[nH]1)[C@@H](CC(C)(C)C)C(=O)N1C[C@]2(C[C@H]1C#N)C(=O)Nc1ccccc12 [Example 126],pIC50,SARS-CoV-2 3CL-protease,> 7.00
CN(C(=O)[C@H](CC1CC1)NC(=O)c1cc(F)c2nn(C3CC3)cc2c1)[C@@H](CC(C)(C)C)C(=O)N1C[C@]2(C[C@H]1C#N)C(=O)Nc1ccccc12 [Example 127],pIC50,SARS-CoV-2 3CL-protease,> 7.00
CC(=O)N[C@@H](C)C(=O)N(C)[C@@H](CC(C)(C)C)C(=O)N1C[C@]2(C[C@H]1C#N)C(=O)Nc1ccccc12 [Example 129],pIC50,SARS-CoV-2 3CL-protease,> 7.00
CC(C)C(=O)N[C@@H](C)C(=O)N(C)[C@@H](CC(C)(C)C)C(=O)N1C[C@]2(C[C@H]1C#N)C(=O)Nc1ccccc12 [Example 130],pIC50,SARS-CoV-2 3CL-protease,> 7.00
CN(C(=O)[C@H](CC1CC1)NC(=O)c1ccc(OC2CC2)c(OC2CC2)c1)[C@@H](CC(C)(C)C)C(=O)N1C[C@]2(C[C@H]1C#N)C(=O)Nc1ccccc12 [Example 131],pIC50,SARS-CoV-2 3CL-protease,> 7.00
CN(C)[C@@H](CC1CC1)C(=O)N(C)[C@@H](CC(C)(C)C)C(=O)N1C[C@]2(C[C@H]1C#N)C(=O)Nc1ccccc12 [Example 132],pIC50,SARS-CoV-2 3CL-protease,6.00 to 7.00
CC(C)C[C@@H](C(=O)N1C[C@]2(C[C@H]1C#N)C(=O)Nc1ccccc12)N(C)C(=O)[C@H](C)NC(=O)c1ccc(F)cc1 [Example 135],pIC50,SARS-CoV-2 3CL-protease,> 7.00

# — patent publication US11325916B1, “Spiropyrrolidine derived antiviral agents” (priority 2021, dated 2022)
